Activity calls are given as the source filed them. How the calls were made is not given here.
Biological target: Influenza A virus M2 proton channel (A/TW/4845/1999 H1N1)
Test: M2 proton channel binding, NMR based, influenza A virus H1N1 strain (AID 1549)
Conditions: NMR binding screen, M2 protein

Row | SMILES | Kd
1 | OCCNc1nc2ccc(Cl)cc2[nH]1 | > 4 mM (inactive)
2 | CC(=O)O[C@H]1CCC2(C)C3=C(CCC2C1(C)C)[C@@]1(C)CC[C@@H](C(C)CCC=C(C)C)[C@]1(C)CC3 (stereo not given in full) | > 4 mM (inactive)
3 | O=c1c[n+]([O-])c2ccccc2n1OCc1ccccn1 | > 4 mM (inactive)
4 | COC(=O)c1cc(C)on1 | > 4 mM (inactive)
5 | COc1cccc(Oc2ccc(N)cn2)c1 | > 4 mM (inactive)
6 | CC(NC(=O)C1CCCCC1)C(=O)NC1=NCCS1 (stereo not given) | > 4 mM (inactive)
7 | O=C(O)CNS(=O)(=O)c1cccs1 | > 4 mM (inactive)
8 | O=S(=O)(O)c1nc2ccccc2[nH]1 | > 4 mM (inactive)
9 | CSc1nnc(-c2ccccc2NC(C)=O)o1 | > 4 mM (inactive)
10 | CCSc1nnc(-c2ccccc2N)c(=O)[nH]1 | > 4 mM (inactive)
11 | Cc1ccc(/C=N/NC(N)=O)o1 | > 4 mM (inactive)
12 | Cc1cc(C)n(-c2cccc3cccnc23)n1 | > 4 mM (inactive)
13 | COc1ccc2c(c1)OC1(O)COc3cc(OC)c(OC)cc3C1=C2 (stereo not given) | > 4 mM (inactive)
14 | CN1C(CC(=O)c2ccccc2)CCCC1CC(O)c1ccccc1 (stereo not given) | > 4 mM (inactive)
15 | O=c1[nH]c(CN2CCN(CCO)CC2)nc2ccccc12 | > 4 mM (inactive)
16 | S=c1nc[nH]c2c1cnn2-c1ccccc1 | > 4 mM (inactive)
17 | O=S(=O)(O)c1cc[n+]([O-])cc1 | > 4 mM (inactive)
18 | O=C(O[C@@H]1Cc2c(O)cc(O)cc2O[C@@H]1c1cc(O)c(=O)c2c(O)c(O)cc([C@H]3Oc4cc(O)cc(O)c4C[C@H]3OC(=O)c3cc(O)c(O)c(O)c3)c2c1)c1cc(O)c(O)c(O)c1 | > 4 mM (inactive)
19 | COc1ccc(Cl)cc1-c1n[nH]c(=S)n1C | > 4 mM (inactive)
20 | CSc1n[nH]c(NCc2ccccc2)n1 | > 4 mM (inactive)
21 | O=C(O)CNC(=O)c1ccccc1Cl | > 4 mM (inactive)
22 | CC(=O)Oc1ccc(-c2cc(=O)c3c(OC(C)=O)cc(OC(C)=O)cc3o2)cc1 | > 4 mM (inactive)
23 | O=C(Nc1cccc(Cl)c1)c1ccncc1 | > 4 mM (inactive)

Row | SMILES | Kd
24 | COc1c(C)c2c(c(O)c1C/C=C(\C)CCC(=O)O)C(=O)OC2 | > 4 mM (inactive)
25 | O=C(O)C1CSC(c2cccnc2)N1 (stereo not given) | > 4 mM (inactive)
26 | NC(=O)c1ccccc1N=Cc1ccco1 | > 4 mM (inactive)
27 | Nc1ncnc(NCCO)c1[N+](=O)[O-] | > 4 mM (inactive)
28 | Cc1cc(N)on1 | > 4 mM (inactive)
29 | O=C(O)c1cccnc1-c1nc2ccccc2s1 | > 4 mM (inactive)
30 | O=C(Nc1cccnc1)c1c(F)c(F)c(F)c(F)c1F | > 4 mM (inactive)
31 | NC(=O)CS(=O)(=O)c1ccc(Cl)cc1 | > 4 mM (inactive)
32 | Nc1ncc2[nH]cnc2n1 | > 4 mM (inactive)
33 | NCc1cccc2nsnc12 | > 4 mM (inactive)
34 | C=C1[C@H]2CC[C@@]3(C)[C@H](c4ccoc4)OC(=O)C[C@]13O[C@H]1C[C@H](O)C(C)(C)[C@H](CC(=O)OC)[C@]12C | > 4 mM (inactive)
35 | O=C1C2C3C=CC(C3)C2C(=O)N1c1nccs1 (stereo not given) | > 4 mM (inactive)
36 | Cc1ccc(CN2C3=NC(=O)CN3c3ccccc32)cc1 | > 4 mM (inactive)
37 | O=C(Nc1cccnc1)c1cnn2cccnc12 | > 4 mM (inactive)
38 | C[C@H]1C(=O)CCC2[C@]3(C)CC[C@@]4(C)C5CC(C)(C)CC[C@]5(C)CC[C@]4(C)C3CC[C@@]21C (stereo not given in full) | > 4 mM (inactive)
39 | O=C(NC(=S)NCc1cccnc1)c1ccco1 | > 4 mM (inactive)
40 | CC(=O)c1c(O)cc(C)n(Cc2ccccc2)c1=O | > 4 mM (inactive)
41 | CC(=O)c1sc2nc(N)nn2c1C | > 4 mM (inactive)
42 | O=C(c1ccc(Cl)c(F)c1F)N1CCCC1 | > 4 mM (inactive)
43 | COc1ccccc1NC(=O)NC(N)=O | > 4 mM (inactive)
44 | C[C@H]1[C@H]2CCC3C4CC=C5C[C@@H](N(C)C)CC[C@]5(C)C4CC[C@@]32CN1C (stereo not given in full) | > 4 mM (inactive)
45 | CN1CCC(NC(=O)C2CCCO2)CC1 (stereo not given) | > 4 mM (inactive)
